Results reported in PubChem BioAssay AID1320 (NMMLSC, 2008).
Activity calls are given as the source filed them. The rule behind the calls is not given here.

Each molecule was assayed against Bcl-2-related protein A1 (Homo sapiens) (UniProt Q16548) (assay: Bfl-1/Bim complex disruptors – biochemical, multiplexed, bead-based flow cytometry, dose response (AID 1320; for percent span (inhibition): test concentration not given here)). Details: Bim peptide-Bfl-1 binding, fluorescence.
Sequence of Bcl-2-related protein A1 (Homo sapiens) (Q16548 whole entry, looked up): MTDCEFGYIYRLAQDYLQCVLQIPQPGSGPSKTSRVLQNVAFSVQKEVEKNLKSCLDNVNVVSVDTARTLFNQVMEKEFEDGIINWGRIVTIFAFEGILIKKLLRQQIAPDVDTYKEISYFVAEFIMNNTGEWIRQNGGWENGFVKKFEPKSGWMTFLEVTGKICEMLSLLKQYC
`COc1ccc(N2C(=O)C(Cl)=C(Nc3c(C)n(C)n(-c4ccccc4)c3=O)C2=O)cc1` was tested, and the EC50 was “inactive”.

Same assay, conditions: Bim peptide-Bfl-1 binding, fluorescence
For `O=C(c1ccccc1NS(=O)(=O)c1ccc(Br)s1)N1CCCC1`, the “percent span (inhibition)” value was “inactive”. `Cc1ccccc1-c1nc(-c2ccc(NC(=O)c3ccc4c(c3)OCO4)cc2)no1` was tested, and the “percent span (inhibition)” value was “inactive”. In the case of `CC1(C)SC(=S)N(NC(=O)Nc2ccccc2)C1N(O)C(=O)Nc1cccc2ccccc12` (stereo not drawn), the “percent span (inhibition)” value was “inactive”. In the case of `COc1ccc(Cl)cc1-n1c(C)cc(C=O)c1C`, the “percent span (inhibition)” value was “inactive”. `Cn1c(OCc2cccnc2)nc2c1c(=O)n(Cc1ccccc1)c(=O)n2C` was tested, and the “percent span (inhibition)” value was “inactive”. For `Cc1ccc(-c2cc(-c3ccccc3Cl)c(C#N)c(N)n2)o1`, the “percent span (inhibition)” value was “inactive”. `COc1ccc(/C=C/C(=O)Nc2sc(Cc3ccccc3)c(C)c2C(N)=O)cc1` was tested, and the “percent span (inhibition)” value was “inactive”. With `O=C(COCC(=O)NCc1ccccc1)NCc1ccccc1` the “percent span (inhibition)” value was “inactive”. `Cc1cc(C)c2nc3nc(C)c(C)cc3c(N)c2c1` was tested, and the “percent span (inhibition)” value was “inactive”. With `CCCCCCn1nc(C(=O)Nc2nc3c(s2)CCCC3)c2ccccc2c1=O` the “percent span (inhibition)” value was “inactive”. `C=CCSc1nc(N)c2c(C)c(C)sc2n1` was tested, and the “percent span (inhibition)” value was “inactive”. For `O=C(C1CCC(Cn2c(=S)[nH]c3ccccc3c2=O)CC1)N1CCN(c2ccccn2)CC1` (stereo not drawn), the “percent span (inhibition)” value was “inactive”. `O=C(OCc1cnc(Cl)s1)c1cccc(Cl)c1Cl` was tested, and the “percent span (inhibition)” value was “inactive”. `COC(=O)c1sc2nc[nH]c(=O)c2c1C` was tested, and the “percent span (inhibition)” value was “inactive”. In the case of `Cc1cccc(/C=N/N(CCO)C2=NS(=O)(=O)c3ccccc32)c1`, the “percent span (inhibition)” value was “inactive”. For `CCOc1ccccc1C(=O)NC1CC2CCCC(C1)N2C1CC1` (stereo not drawn), the “percent span (inhibition)” value was “inactive”. In the case of `Cc1ccc(-c2ccc(CCC(=O)O)n2NC(=O)c2cccs2)cc1`, the “percent span (inhibition)” value was “inactive”. In the case of `Cc1cc(OCc2cn3cccnc3n2)ccc1Cl`, the “percent span (inhibition)” value was “inactive”. With `O=C(COc1ccccc1)Nc1ccc2c(c1)Cc1cc(NC(=O)COc3ccccc3)ccc1-2` the “percent span (inhibition)” value was “inactive”. For `N#CC(C#N)=C1C=CC=CN1/C(=C\c1ccco1)C(=O)c1ccccc1`, the “percent span (inhibition)” value was “inactive”. In the case of `Cc1csc(Nc2ccccc2C(F)(F)F)n1`, the “percent span (inhibition)” value was “inactive”. With `CC(C)n1nnnc1SCC(=O)N1CCN(C(=O)c2ccco2)CC1` the “percent span (inhibition)” value was “inactive”. With `Cc1ccc(-c2cc(C(=O)N3CCN(c4ncccn4)CC3)c3cc(Br)ccc3n2)o1` the “percent span (inhibition)” value was “inactive”. With `CCC(CC)C(=O)Nc1cccc(S(=O)(=O)c2cccc(NC(=O)C(CC)CC)c2)c1` the “percent span (inhibition)” value was “inactive”. `Cc1cc(NC(=O)CCCC(=O)NCc2ccccc2)no1` was tested, and the “percent span (inhibition)” value was “inactive”. In the case of `O=C(Cc1ccccc1)OCCNC(=O)c1cccnc1`, the “percent span (inhibition)” value was “inactive”. With `CCCCC(=O)Nc1ccc(C(=O)N2CCC(C(=O)OCC)CC2)cc1` the “percent span (inhibition)” value was “inactive”. With `O=C(NCC1CCCO1)c1ccc2c(=O)n(-c3ccc(F)cc3)c(=S)[nH]c2c1` (stereo not drawn) the “percent span (inhibition)” value was “inactive”. With `CC1Cc2ccccc2N1C(=O)c1ccc(N2CCCC2)c([N+](=O)[O-])c1` (stereo not drawn) the “percent span (inhibition)” value was “inactive”. In the case of `CC(=O)c1ccc2c(c1)C1C=CCC1C(c1ccncc1)N2` (stereo not drawn), the “percent span (inhibition)” value was “inactive”. For `CCOC(=O)C1CCCN(c2ncnc3c2cnn3-c2cccc(C)c2)C1` (stereo not drawn), the “percent span (inhibition)” value was “inactive”. `COc1ccc(NC(=O)c2ccc3c(c2)NC(=O)CS3)cc1S(=O)(=O)Nc1ccc(Br)cc1` was tested, and the “percent span (inhibition)” value was “inactive”. In the case of `COc1ccc(N2CC(C(=O)Nc3nnc(SCC(=O)c4ccccc4)s3)CC2=O)cc1` (stereo not drawn), the “percent span (inhibition)” value was “inactive”. For `CCN1/C(=C/c2ccc3cc(C)ccc3[n+]2CC)Sc2cc(C)c(C)cc21`, the “percent span (inhibition)” value was “inactive”. For `Clc1ccc2c(N/N=C/c3cccc(Br)c3)ccnc2c1`, the “percent span (inhibition)” value was “inactive”. In the case of `CCCCN(C(=O)CCC(=O)Nc1cc(C)on1)C(C(=O)NC(C)(C)C)c1cccc(OC)c1OC` (stereo not drawn), the “percent span (inhibition)” value was “inactive”. `CCN(CC)c1ccc(NC(=O)c2cccc(C)c2)cc1S(=O)(=O)Nc1ccccc1OC` was tested, and the “percent span (inhibition)” value was “inactive”. With `CN1C2C=C3C(C#N)=C(N)C(C#N)(C#N)[C@@H](c4ccsc4)[C@@H]3C1CC2` (stereo partly drawn) the “percent span (inhibition)” value was “inactive”. `Cc1ccc(NC(=O)C/C(N)=N/OC(=O)c2ccccc2)cc1` was tested, and the “percent span (inhibition)” value was “inactive”. In the case of `O=C1N/C(=C/c2cccn2-c2ccccc2)C(=O)N1Cc1ccc(F)cc1`, the “percent span (inhibition)” value was “inactive”. With `BrC(=C\c1ccccc1)/C=N/N1CCN(c2ccccc2)CC1` the “percent span (inhibition)” value was “inactive”. `COc1ccc(NC(=O)/C(C#N)=C/c2c(C)nn(-c3ccc(F)cc3)c2Cl)cc1Cl` was tested, and the “percent span (inhibition)” value was “inactive”. In the case of `COc1ccccc1NC(=O)CSc1nnc(-c2ccco2)n1Cc1ccco1`, the “percent span (inhibition)” value was “inactive”. With `Cc1ccc(-c2n[nH]c(=S)n2-c2ccccc2)cc1` the “percent span (inhibition)” value was “inactive”. In the case of `CCCn1c(SCC(=O)Nc2ccccc2-c2ccccc2)nnc1-c1ccoc1C`, the “percent span (inhibition)” value was “inactive”. `CCOC(=O)c1c(NC(=O)c2ccccc2N(C)S(=O)(=O)c2ccccc2)sc2c1CCCC2` was tested, and the “percent span (inhibition)” value was “inactive”. With `CCOC(=O)c1nc(Nc2ccc(N3CCC(C)CC3)cc2)c2ccccc2n1` the “percent span (inhibition)” value was “inactive”. In the case of `N/C(Cc1ccc(Cl)c(Cl)c1)=N\OC(=O)c1cccs1`, the “percent span (inhibition)” value was “inactive”. With `CCC(CC)C(=O)Nc1cccc(SC)c1` the “percent span (inhibition)” value was “inactive”. `Cc1ccc(-n2[nH]c(C)c(/C=N/Nc3ccc([N+](=O)[O-])cc3[N+](=O)[O-])c2=O)cc1C` was tested, and the “percent span (inhibition)” value was “inactive”. With `COc1ccc(CN(CC(=O)NC2CCCC2)C(=O)CCC(=O)Nc2cc(C)on2)cc1` the “percent span (inhibition)” value was “inactive”. `Cc1ccc(N=c2ssnc2Cl)cc1` was tested, and the “percent span (inhibition)” value was “inactive”. `Cc1noc(C)c1COc1ccc(C(=O)Nc2cccnc2)cc1` was tested, and the “percent span (inhibition)” value was “inactive”. With `CCN(CC)c1ccc(NC(=O)COc2ccccc2C#N)cc1S(=O)(=O)Nc1ccccc1OC` the “percent span (inhibition)” value was “inactive”. In the case of `Cc1cccc(NC(=S)N2CCn3cccc3C2c2cccnc2)c1` (stereo not drawn), the “percent span (inhibition)” value was “inactive”. For `O=C(OCC(=O)c1ccc[nH]1)c1ccccc1`, the “percent span (inhibition)” value was “inactive”. In the case of `Cn1c(N)c(C(=O)COC(=O)c2cc(-c3ccco3)nc3ccccc23)c(=O)n(Cc2ccccc2)c1=O`, the “percent span (inhibition)” value was “inactive”. With `Cc1cc(Cl)ccc1N=c1ssnc1Cl` the “percent span (inhibition)” value was “inactive”. With `COc1ccc(-n2c(=O)c3ccccc3c3ccccc3c2=O)c(OC)c1` the “percent span (inhibition)” value was “inactive”. `CC(C)(C)OC(=O)N1CCN(C(=O)[C@H](Cc2ccc(O)cc2)n2cc(CCO)nn2)CC1` was tested, and the “percent span (inhibition)” value was “inactive”. With `CCN(CC)c1nc(N)nc(N(c2ccccc2)c2ccccc2)n1` the “percent span (inhibition)” value was “inactive”. `COc1cc(/C=C2\S/C(=N/S(=O)(=O)c3ccc(C)cc3)NC2=O)c([N+](=O)[O-])cc1OC` was tested, and the “percent span (inhibition)” value was “inactive”. For `CS(=O)(=O)NN1C(=O)c2ccccc2NC1c1cccc2cccnc12` (stereo not drawn), the “percent span (inhibition)” value was “inactive”. In the case of `COc1cc2nc(=S)n(CCCN3CCOCC3)c(N)c2cc1OC`, the “percent span (inhibition)” value was “inactive”. For `O=c1nc2c(O)cccn2c2c1c(=O)[nH]c1ccccc12`, the “percent span (inhibition)” value was “inactive”. For `O=C1NC(=S)S/C1=C/c1ccc(N2CCOCC2)o1`, the “percent span (inhibition)” value was “inactive”. `Cn1c(N)c(C(=O)COC(=O)c2cc(-c3ccco3)nc3ccccc23)c(=O)n(C)c1=O` was tested, and the “percent span (inhibition)” value was “inactive”. In the case of `Cc1cccc(Nc2nc(-c3ccncc3)cs2)c1`, the “percent span (inhibition)” value was “inactive”. With `CCOc1ccc(C(=O)Nc2nnn(CC)n2)cc1` the “percent span (inhibition)” value was “inactive”. With `Cc1nc(NC(=O)CC(C)C)sc1-c1csc(Nc2ccc(Cl)cc2)n1` the “percent span (inhibition)” value was “inactive”. For `O=C(Cc1ccc(-c2ccccc2)cc1)NC1CCCC1`, the “percent span (inhibition)” value was “inactive”. `O=C(NCCN1CCOCC1)c1cc(Cl)ccc1[N+](=O)[O-]` was tested, and the “percent span (inhibition)” value was “inactive”. `Cc1ccc(C(=O)C(C(=O)/C=C/c2ccccc2)=C2SCCCS2)cc1` was tested, and the “percent span (inhibition)” value was “inactive”. `N/C(=N\OC(=O)CCC1CCCC1)c1ccncc1` was tested, and the “percent span (inhibition)” value was “inactive”. With `Cc1sc(NC(=O)Cn2cnnn2)nc1-c1ccc(Cl)cc1` the “percent span (inhibition)” value was “inactive”. In the case of `S=C(Nc1ccc(N2CCOCC2)cc1)Nc1ccc2nc(-c3ccco3)c(-c3ccco3)nc2c1`, the “percent span (inhibition)” value was “inactive”. In the case of `CCCC1(C(=O)OCC)NC(c2cc(OC)c(OC)c(OC)c2)C2C(=O)N(CC)C(=O)C21` (stereo not drawn), the “percent span (inhibition)” value was “inactive”. `CN(Cc1cccs1)C(=O)CCc1c[nH]c2ccccc12` was tested, and the “percent span (inhibition)” value was “inactive”. With `C/C(=N\NC(=O)COc1ccc(C(C)(C)C)cc1)c1ccc2c(c1)OCCO2` the “percent span (inhibition)” value was “inactive”. With `CC(C)(C)C(=O)NC(NC(=S)Nc1ccc(S(N)(=O)=O)cc1)C(Cl)(Cl)Cl` (stereo not drawn) the “percent span (inhibition)” value was “inactive”. With `O=C(NC1=NCCS1)NC12CC3CC(CC(C3)C1)C2` the “percent span (inhibition)” value was “inactive”. For `COc1ccccc1-n1c(-c2ccc(Cl)cc2)c[nH]c1=S`, the “percent span (inhibition)” value was “inactive”. With `Clc1nssc1=Nc1ccccc1` the “percent span (inhibition)” value was “inactive”. For `Nc1ccc(N2CCCCCC2)cc1`, the “percent span (inhibition)” value was “inactive”. `Cc1ccc(NC(=O)CSc2nc3ccccc3c(=O)n2CCCN2CCCCC2)cc1Cl` was tested, and the “percent span (inhibition)” value was “inactive”. In the case of `CCOC(=O)c1sc(NC(=O)c2ccncc2)c(C#N)c1C`, the “percent span (inhibition)” value was “inactive”. `COc1ccc(OCCNC(=O)c2ccccc2OCC(=O)N2CCCCC2)cc1` was tested, and the “percent span (inhibition)” value was “inactive”. In the case of `O=C(CSc1nnc(Cc2ccccc2)o1)NCc1ccco1`, the “percent span (inhibition)” value was “inactive”. In the case of `Cc1c(Cc2ccccc2)sc(N)c1C(N)=O`, the “percent span (inhibition)” value was “inactive”. `CCOc1ccc2nc(SCC(=O)N3c4ccccc4Sc4ccccc43)c(C#N)cc2c1` was tested, and the “percent span (inhibition)” value was “inactive”. For `CCOc1ccc(C2=Nn3c(nnc3-c3ccccn3)SC2)cc1`, the “percent span (inhibition)” value was “inactive”. In the case of `O=C(O)CCN1C(=O)/C(=C\c2ccc(-c3nc4ccccc4s3)o2)SC1=S`, the “percent span (inhibition)” value was “inactive”. For `CC(C)Cc1cc(-c2ccco2)c(C#N)c(N)n1`, the “percent span (inhibition)” value was “inactive”. In the case of `CN(Cc1ccccc1)c1nc2c(c(=O)[nH]c(=O)n2C)n1C`, the “percent span (inhibition)” value was “inactive”. `COc1ccccc1C1=Nc2cccc3cccc(c23)N1` was tested, and the “percent span (inhibition)” value was “inactive”. `Cc1nc2cc(F)ccc2n1C1CCN(C(=O)c2c(F)cccc2F)CC1` was tested, and the “percent span (inhibition)” value was “inactive”. For `O=C(NNC(=O)C12CC3CC(CC(C3)C1)C2)c1ccco1`, the “percent span (inhibition)” value was “inactive”.
